Columns and labels:
Format in all cases: cell-based
[1] = tested on: Enterococcus faecalis (ATCC 29212); experiment: Broth microdilution MIC; conditions: ciprofloxacin 0.03125–64 µg/mL
Description: (§1) The antibacterial activities of the compounds were determined using the broth microdilution method, as per the advice of international standards. […] Standard bacterial strains Staphylococcus aureus (ATCC 29213), Enterococcus faecalis (ATCC 29212), Escherichia coli (ATCC 25922), Pseudomonas aeruginosa (ATCC 27853), and yeast Candida albicans (ATCC 10231), were previously stored at −80 °C then revived at room temperature. Microorganisms were inoculated using overnight broth cultures. Stock solutions of the samples studied at a concentration of 1000 µg/mL were prepared with dimethyl sulfoxide (DMSO). An amount of 100 µL of Mueller Hinton Broth (Liofilchem, Italy) were dispensed into all wells of 96-well microplates. […] Serial dilutions of 0.00048–1% DMSO were made into a column of the microplate to determine its antimicrobial activity. 0.5 McFarland standard in physiological saline from each microorganism strains were prepared and 20 µL of the prepared suspension was added to the wells. An amount of 100 µL Mueller Hinton Broth in a column of the microplate served as a negative control and another column of the microplate containing 100 µL of Mueller Hinton Broth with 20 µL of each microorganism added served as a growth control. As positive controls, ciprofloxacin was applied against bacterial strains at a concentration range of 0.03125–64 µg/mL, and fluconazole was used against Candida albicans at a concentration range of 0.3125–640 µg/mL. The plates were covered with parafilm, incubated at 36.5 °C in an aerobic environment for 24 h. After incubation, the optical density was measured at 620 nm. The first concentration without microbial growth was determined as MIC and experiments were repeated twice.

[2] = tested on: Escherichia coli (ATCC 25922); experiment: Broth microdilution MIC; conditions: ciprofloxacin 0.03125–64 µg/mL
Description: as §1

[3] = tested on: Pseudomonas aeruginosa (ATCC 27853); experiment: Broth microdilution MIC; conditions: ciprofloxacin 0.03125–64 µg/mL
Description: as §1

[4] = tested on: Staphylococcus aureus (ATCC 29213); experiment: Broth microdilution MIC; conditions: ciprofloxacin 0.03125–64 µg/mL
Description: as §1

Enterococcus faecalis = experiment: Well plate biofilm formation assay (crystal violet); conditions: over the concentration range given per compound (Table 4)
Description: (§2) The well plate assay was utilized to test the effectiveness of compounds in inhibiting biofilms made by microorganisms. An amount of 100 μL of Brucella broth (Remel, Lenexa, KS, USA) containing 1% and 20% glucose (Biolife, Milan, Italy), were dispensed into the test wells. In the next step, 100 μL of compounds ranging from 0.244 to 1000 μg/mL were poured into the wells. […] Then, 0.5 McFarland standard in physiological saline from each microorganism strain were prepared and 20 μL of the prepared suspension was added to the wells. A column of the microplate containing 100 μL Brucella broth served as a negative control and another column of the microplate containing 100 μL Brucella with 20 μL of each microorganism added served as a growth control. As positive controls, ciprofloxacin was applied against bacterial strains at a concentration range of 0.03125-64 μg/mL, and fluconazole was used against Candida albicans at a concentration range of 0.3125-640 μg/mL. Plates were left to incubate at 36.5 °C for a day. The plates were emptied and then washed three times with 300 μL of deionized water. The wells were left to dry for half an hour. The next step was staining with 0.1% (w/v) violet dye ([…]), cleaning three times with deionized water, and drying at room temperature. The crystal violet adhering to the wall of the wells was dissolved with 95% ethanol, and the optical density was measured at 570 nm. The test was run two times, and the mean value was calculated. Biofilm preventing (%) = {(ODb - ODc)/ODb} × 100.

Staphylococcus aureus = experiment: as above; conditions: over the concentration range given per compound (Table 4); 1c and 1e at 1000 µg/mL
Description: as §2

Pseudomonas aeruginosa = experiment: as above; conditions: over the concentration range given per compound (Table 4)
Description: as §2

Escherichia coli = experiment: as above; conditions: over the concentration range given per compound (Table 4)
Description: as §2

[5] = tested on: Candida albicans (ATCC 10231); experiment: Broth microdilution MIC; conditions: fluconazole 0.3125–640 µg/mL
Description: as §1

Candida albicans = experiment: Well plate biofilm formation assay (crystal violet); conditions: over the concentration range given per compound (Table 4)
Description: as §2

SMILES	Microbial growth in positive control wells [1]	Microbial growth in positive control wells [2]	Microbial growth in positive control wells [3]	Microbial growth in positive control wells [4]	Antibiofilm activity Enterococcus faecalis (Enterococcus faecalis) [%]	Antibiofilm activity Staphylococcus aureus (Staphylococcus aureus) [%]	Antibiofilm activity Pseudomonas aeruginosa (Pseudomonas aeruginosa) [%]	Antibiofilm activity Escherichia coli (Escherichia coli) [%]	Microbial growth in positive control wells [5]	Antibiofilm activity Candida albicans (Candida albicans) [%]
O=C(O)c1cn(C2CC2)c2cc(N3CCNCC3)c(F)cc2c1=O [Ciprofloxacin, ciprofloxacin, reference compound]	no microbial growth was observed	no microbial growth was observed	no microbial growth was observed	no microbial growth was observed	18.11	50.56	35.79	36.67	–	–
OC(Cn1cncn1)(Cn1cncn1)c1ccc(F)cc1F [Fluconazole, fluconazole, reference compound]	–	–	–	–	–	–	–	–	no microbial growth was observed	29.10

— publication PMC12467740, “Synthesis, Characterization, and Screening Anticancer—Antibiofilm Activities of Theophylline Derivatives Containing CF3/OCF3 Moiety” (Biology, 2025)
